Like-named read-outs stand apart in the source and are kept apart here.
Columns and labels:
Assay type in all cases: biochemical
CDK2/cyclin A = CDK2/cyclin A (Homo sapiens (Human), UniProt P24941); assay: CDK2/Cyclin A enzymatic activity assay (IMAP-FP)
CDK4/cyclin D1 = CDK4/cyclin D1 (Homo sapiens (Human), UniProt P11802); assay: CDK4/Cyclin D1 enzymatic activity assay (Lance TR-FRET)
Protocol: A 384-well microtiter Lance TR-FRET (time-resolved-fluorescence energy transfer) endpoint assay was used for CDK4/cyclin D1 kinase activity measurements. The same assay was used for IC50 determination of small molecule inhibitors. In general, the kinase reactions were carried out in 30 μL volumes in the reaction solution containing the following: 2 uL compound (in […]), 18 uL CDK4/cyclin D1 in Assay Buffer (50 mM HEPES, pH 7.5, 5 mM MgCl2, 2 mM MnCl2, 1 mM DTT, 0.05% BSA, 0.02% Tween-20), 10 uL of the mixture of pRb152 and ATP. The final reaction mixture contains compound (inhibitor) with the concentration varying from 0.005-10 μM, 2% DMSO, 0.3 nM CDK4/cyclin D1, 175 nM pRb152, and 3 μM ATP (Amersham Pharmacia, Cat. No. 27-2056-01). All reactions were run at room temperature in 384-well white flat-bottom OptiPlates (Perkin Elmer, Cat. No. 6007290) for 60 min then were quenched by the addition of 10 μL of 120 mM EDTA. The signals were captured by the addition of 40 μL of the Detection Solution containing the following: Detection Buffer (50 mM HEPES, pH 7.5, 30 mM EDTA, 0.1% Triton x-100, 0.05% BSA), 70 ng/mL anti-phospho-pRb(S780) (Cell Signaling Technology, Cat. No. 9307S), 1 nM Lance Eu-W1024-Rabbit anti-IgG (Perkin Elmer, Cat. No. AD0082), and 20 nM SureLight™ Allophycocyanin-Streptavidin (Perkin Elmer, Cat. No. CR130-100). The resulted solutions were incubated at room temperature for 2 hours before read on the Evision Multilabel Reader (Perkin Elmer, Envision 2102-0010).
CDk4/cyclin D1 recombinant protein used in the enzymatic activity assay was prepared by coexpressing pDEST10-CDK4 (N-terminal His6) and pFastBacDual-GST-hCyclinDl viruses in Sf21 cells.

CDK1/cyclin B = CDK1/cyclin B (Homo sapiens (Human), UniProt P06493); assay: CDK1/Cyclin B enzymatic activity assay (IMAP-FP)
Sequence of CDK1/cyclin B (P06493 whole entry, species assumed): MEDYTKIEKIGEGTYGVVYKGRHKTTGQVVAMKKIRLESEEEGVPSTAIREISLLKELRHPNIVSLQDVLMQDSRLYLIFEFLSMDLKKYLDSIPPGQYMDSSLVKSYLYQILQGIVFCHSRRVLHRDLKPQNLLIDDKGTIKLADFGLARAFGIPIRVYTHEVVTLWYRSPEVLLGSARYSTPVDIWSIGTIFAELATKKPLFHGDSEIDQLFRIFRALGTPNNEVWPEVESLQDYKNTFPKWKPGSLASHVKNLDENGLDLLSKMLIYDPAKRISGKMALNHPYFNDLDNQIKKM
Sequence of CDK1/cyclin B (P14635 whole entry partner, species assumed): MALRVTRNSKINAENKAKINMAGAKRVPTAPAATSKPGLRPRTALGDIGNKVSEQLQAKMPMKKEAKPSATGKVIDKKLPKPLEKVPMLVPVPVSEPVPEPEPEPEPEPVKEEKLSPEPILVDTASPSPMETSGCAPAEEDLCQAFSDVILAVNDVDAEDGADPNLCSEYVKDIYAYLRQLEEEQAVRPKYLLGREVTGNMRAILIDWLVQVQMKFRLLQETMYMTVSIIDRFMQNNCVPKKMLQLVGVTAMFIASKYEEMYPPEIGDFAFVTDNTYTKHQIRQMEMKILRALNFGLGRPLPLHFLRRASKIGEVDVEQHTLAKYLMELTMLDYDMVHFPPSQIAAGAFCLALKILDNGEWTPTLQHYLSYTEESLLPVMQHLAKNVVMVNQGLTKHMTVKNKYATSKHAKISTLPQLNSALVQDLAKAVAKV
From the text: A 384-well microtiter IMAP-FPT™ (Molecular Devices Trade Mark Technology) endpoint assay was used for CDK1/cyclin B kinase activity measurements. The same assay was used for IC50 determination of small molecule inhibitors.

[1] = Table 2, 3 μM ATP, read-out: CDK4
[2] = Table 2, 20 μM ATP, read-out: CDK1
[3] = Table 4, read-out: IC50 (μM) CDK2
[4] = Table 4, read-out: IC50 (μM) CDK4
[5] = Table 4, read-out: IC50 (μM) CDK1

Sequence of CDK4/cyclin D1 (P11802 whole entry): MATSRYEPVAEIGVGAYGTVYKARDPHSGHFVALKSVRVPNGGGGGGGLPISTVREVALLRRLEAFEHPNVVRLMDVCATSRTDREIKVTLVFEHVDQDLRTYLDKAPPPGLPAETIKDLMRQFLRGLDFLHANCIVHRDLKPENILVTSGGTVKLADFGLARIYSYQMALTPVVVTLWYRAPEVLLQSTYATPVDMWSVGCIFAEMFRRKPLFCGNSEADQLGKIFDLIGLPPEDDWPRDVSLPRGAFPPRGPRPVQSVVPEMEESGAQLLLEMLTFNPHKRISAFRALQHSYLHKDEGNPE
Sequence of CDK4/cyclin D1 (P24385 whole entry partner): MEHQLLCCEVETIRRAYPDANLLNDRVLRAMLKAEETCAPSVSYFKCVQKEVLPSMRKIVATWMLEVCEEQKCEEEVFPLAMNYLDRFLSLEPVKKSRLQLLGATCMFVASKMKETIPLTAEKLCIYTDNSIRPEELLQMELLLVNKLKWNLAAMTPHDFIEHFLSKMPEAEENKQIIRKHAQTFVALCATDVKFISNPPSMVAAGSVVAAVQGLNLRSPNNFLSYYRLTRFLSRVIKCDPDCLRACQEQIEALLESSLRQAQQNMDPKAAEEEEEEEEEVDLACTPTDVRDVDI

| IC50 (CDK2/cyclin A; Table 2, read-out: CDK2) [µM] | IC50 (CDK4/cyclin D1; [1]) [µM] | IC50 (CDK1/cyclin B; [2]) [µM] | IC50 (CDK2/cyclin A; [3]) [µM] | IC50 (CDK4/cyclin D1; [4]) [µM] | IC50 (CDK1/cyclin B; [5]) [µM] | Structure (SMILES) |
| --- | --- | --- | --- | --- | --- | --- |
| > 15 | 0.01 to 0.1 | > 15 |  |  |  | CN(C)C(=O)c1cc2cnc(Nc3ccc(N4CC(O)C4)cn3)nc2n1C1CCCC1 [Example 32, 7-Cyclopentyl-2-[5-(3-hydroxy-azetidin-1-yl)-pyridin-2-ylamino]-7H-pyrrolo[2,3-d]pyrimidine-6-carboxylic acid dimethylamide] |
| > 15 | 0.01 to 0.1 | > 15 |  |  |  | CN(C)C(=O)c1cc2cnc(Nc3ccc(N4CCN(CC(N)=O)CC4)cn3)nc2n1C1CCCC1 [Example 10, 2-[5-(4-Carbamoylmethyl-piperazin-1-yl)-pyridin-2-ylamino]-7-cyclopentyl-7H-pyrrolo[2,3-d]pyrimidine-6-carboxylic acid dimethylamide] |
| > 15 | 0.001 to 0.01 | > 15 |  |  |  | CC(C)CN1CCN(c2ccc(Nc3ncc4cc(C(=O)N(C)C)n(C5CCCC5)c4n3)nc2)CC1 [Example 92, 7-Cyclopentyl-2-[5-(4-isobutyl-piperazin-1-yl)-pyridin-2-ylamino]-7H-pyrrolo[2,3-d]pyrimidine-6-carboxylic acid dimethylamide] |
| > 15 | 0.1 to 1 | > 15 |  |  |  | CN(C)C(=O)c1cc2cnc(Nc3ccccn3)nc2n1C1CCCC1 [Example 1, 7-Cyclopentyl-2-(pyridin-2-ylamino)-7H-pyrrolo[2,3-d]pyrimidine-6-carboxylic acid dimethylamide] |
| > 15 | 0.001 to 0.01 | > 15 | > 15 | 0.008 | > 15 | CC(C)N1CCN(c2ccc(Nc3ncc4cc(C(=O)N(C)C)n(C5CCCC5)c4n3)nc2)CC1 [Example 63, 7-Cyclopentyl-2-[5-(4-isopropyl-piperazin-1-yl)-pyridin-2-ylamino]-7H-pyrrolo[2,3-d]pyrimidine-6-carboxylic acid dimethylamide] |
| > 15 | 0.01 to 0.1 | > 15 |  |  |  | CN(C)C(=O)c1cc2cnc(Nc3ccc(N4CCN(C(=O)CC5CCCCC5)CC4)cn3)nc2n1C1CCCC1 [Example 90, 2-{5-[4-(2-Cyclohexyl-acetyl)-piperazin-1-yl]-7H-pyridin-2-ylamino}-7-cyclopentyl-7H-pyrrolo[2,3-d]pyrimidine-6-carboxylic acid dimethylamide] |
|  |  |  | > 15 | 2.5 | > 15 | Cc1c(C(=O)N(C)C)n(C2CCCC2)c2nc(Nc3ccc(N4CCNCC4)cn3)ncc12 [Example 202, reference compound] |
| > 15 | 0.01 to 0.1 | > 15 |  |  |  | CCC(C)CN1CCN(c2ccc(Nc3ncc4cc(C(=O)N(C)C)n(C5CCCC5)c4n3)nc2)CC1 (stereo not drawn) [Example 99, 7-Cyclopentyl-2-{5-[4-(2-methyl-butyl)-piperazin-1-yl]-pyridin-2-ylamino}-7H-pyrrolo[2,3-d]pyrimidine-6-carboxylic acid dimethylamide] |
| > 15 | 0.01 to 0.1 | > 15 |  |  |  | CN(C)C(=O)c1cc2cnc(Nc3ccc(N4CCN(C(=O)CN)CC4)cn3)nc2n1C1CCCC1 [Example 12, 2-{5-[4-(2-Amino-acetyl)-piperazin-1-yl]-pyridin-2-ylamino}-7-cyclopentyl-7H-pyrrolo[2,3-d]pyrimidine-6-carboxylic acid dimethylamide] |
| > 15 | 0.01 to 0.1 | > 15 |  |  |  | CN(C)C(=O)c1cc2cnc(Nc3ccc(N4CCNC(=O)C4)cn3)nc2n1C1CCCC1 [Example 4, 7-Cyclopentyl-2-[5-(3-oxo-piperazin-1-yl)-pyridin-2-ylamino]-7H-pyrrolo[2,3-d]pyrimidine-6-carboxylic acid dimethylamide] |
| > 15 | 0.1 to 1 | > 15 |  |  |  | CN(C)C(=O)c1cc2cnc(Nc3cnc(N4CCN(CCO)CC4)cn3)nc2n1C1CCCC1 [Example 15, 7-Cyclopentyl-2-[4-(2-hydroxy-ethyl)-3,4,5,6-tetrahydro-2H-[1,2]′bipyrazinyl-5′-ylamino]-7H-pyrrolo[2,3-d]pyrimidine-6-carboxylic acid dimethylamide] |
| > 15 | 0.01 to 0.1 | > 15 |  |  |  | CNC(=O)c1cc2cnc(Nc3ccc(N4CCNCC4)cn3)nc2n1C1CCCC1 [Example 58, 7-Cyclopentyl-2-(5-piperazin-1-yl-pyridin-2-ylamino)-7H-pyrrolo[2,3-d]pyrimidine-6-carboxylic acid methylamide] |
| > 15 | 0.01 to 0.1 | > 15 |  |  |  | CN(C)C(=O)c1cc2cnc(Nc3ccc(N4CCN(C(=O)CCC5CCCC5)CC4)cn3)nc2n1C1CCCC1 [Example 91, 7-Cyclopentyl-2-{5-[4-(3-cyclopentyl-propionyl)-piperazin-1-yl]-pyridin-2-ylamino}-7H-pyrrolo[2,3-d]pyrimidine-6-carboxylic acid dimethylamide] |
| 8 | 0.01 to 0.1 | 14 |  |  |  | CN(C)C(=O)c1cc2cnc(Nc3ccc(N4CCCNCC4)cn3)nc2n1C1CCCC1 [Example 8, 7-Cyclopentyl-2-(5-[1,4]diazepan-1-yl-pyridin-2-ylamino)-7H-pyrrolo[2,3-d]pyrimidine-6-carboxylic acid dimethylamide] |
| > 15 | 0.01 to 0.1 | > 15 |  |  |  | C[C@H]1CN(Cc2ccc(Nc3ncc4cc(C(=O)N(C)C)n(C5CCCC5)c4n3)nc2)CCN1 [Example 55, 7-Cyclopentyl-2-[5-((S)-3-methyl-piperazin-1-ylmethyl)-pyridin-2-ylamino]-7H-pyrrolo[2,3-d]pyrimidine-6-carboxylic acid dimethylamide] |
| > 15 | 0.01 to 0.1 | > 15 |  |  |  | CN(C)C(=O)c1cc2cnc(Nc3ccc(CN4CCN(C(=O)CN)CC4)cn3)nc2n1C1CCCC1 [Example 65, 2-{5-[4-(2-Amino-acetyl)-piperazin-1-ylmethyl]-pyridin-2-ylamino}-7-cyclopentyl-7H-pyrrolo[2,3-d]pyrimidine-6-carboxylic acid dimethylamide] |
| > 15 | 0.01 to 0.1 | > 15 |  |  |  | C[C@@H](O)CN1CCN(c2ccc(Nc3ncc4cc(C(=O)N(C)C)n(C5CCCC5)c4n3)nc2)CC1 [Example 57, 7-Cyclopentyl-2-{5-[4-((R)-2-hydroxy-propyl)-piperazin-1-yl]-pyridin-2-ylamino}-7H-pyrrolo[2,3-d]pyrimidine-6-carboxylic acid dimethylamide] |
| > 15 | 0.001 to 0.01 | > 15 |  |  |  | CCN1CCN(c2ccc(Nc3ncc4cc(C(=O)N(C)C)n(C5CCCC5)c4n3)nc2)CC1 [Example 78, 7-Cyclopentyl-2-[5-(4-ethyl-piperazin-1-yl)-pyridin-2-ylamino]-7H-pyrrolo[2,3d]pyrimidine-6-carboxylic acid dimethylamide] |
| 20 | 0.1 to 1 | > 15 |  |  |  | CN(C)C(=O)c1cc2cnc(Nc3ccc(N4CCN(C(=O)OC(C)(C)C)CC4)nn3)nc2n1C1CCCC1 [Example 45, 4-[6-(7-Cyclopentyl-6-dimethylcarbamoyl-7H-pyrrolo[2,3-d]pyrimidin-2-ylamino)-pyridazin-3-yl]-piperazine-1-carboxylic acid tert-butyl ester] |
| 14 | 0.01 to 0.1 | 12 |  |  |  | CN(C)C(=O)c1cc2cnc(Nc3ccc(CN4CC(O)C4)cn3)nc2n1C1CCCC1 [Example 10A, 7-Cyclopentyl-2-[5-(3-hydroxy-azetidin-1-ylmethyl)-pyridin-2-ylamino]-7H-pyrrolo[2,3-d]pyrimidine-6-carboxylic acid dimethylamide] |
| > 15 | 0.1 to 1 | > 15 |  |  |  | COC(=O)C(C)N1CCN(c2ccc(Nc3ncc4cc(C(=O)N(C)C)n(C5CCCC5)c4n3)nc2)CC1 (stereo not drawn) [Example 101, 2-{4-[6-(7-Cyclopentyl-6-dimethylcarbamoyl-7H-pyrrolo[2,3-d]pyrimidin-2-ylamino)-pyridin-3-yl]-piperazin-1-yl}-propionic acid methyl ester] |

| Structure (SMILES) | IC50 (CDK2/cyclin A; Table 2, read-out: CDK2) [µM] | IC50 (CDK4/cyclin D1; [1]) [µM] | IC50 (CDK1/cyclin B; [2]) [µM] | IC50 (CDK2/cyclin A; [3]) [µM] | IC50 (CDK4/cyclin D1; [4]) [µM] | IC50 (CDK1/cyclin B; [5]) [µM] |
| --- | --- | --- | --- | --- | --- | --- |
| CN(C)C(=O)c1cc2cnc(Nc3ccc(C4CCN(CCO)CC4)cn3)nc2n1C1CCCC1 [Example 100, 7-Cyclopentyl-2-[1′-(2-hydroxy-ethyl)-1′,2′,3′,4′,5′,6′-hexahydro-[3,4]bipyridinyl-6-ylamino]-7H-pyrrolo[2,3-d]pyrimidine-6-carboxylic acid dimethylamide] | > 15 | 0.01 to 0.1 | > 15 |  |  |  |

Source: US8962630B2, “Pyrrolopyrimidine compounds and their uses” (Novartis AG, priority 2008, dated 2015)
